Measurements from ChEMBL document CHEMBL1921674, “Novel tricyclic inhibitors of IKK2: discovery and SAR leading to the identification of 2-methoxy-N-((6-(1-methyl-4-(methylamino)-1,6-dihydroimidazo[4,5-d]pyrrolo[2,3-b]pyridin-7-yl)pyridin-2-yl)methyl)acetamide (BMS-066)” (Bioorg Med Chem Lett, 2011).

Tests used:
Cytochrome P450 2D6 = Cytochrome P450 2D6 (Homo sapiens, UniProt P10635); assay: Inhibition of CYP2D6; assay type: ADME
[1] = AUC in Lewis rat at 10 mg/kg, po; assay type: ADME, organism-based; parameters: dose 10 mg/kg, route oral; conditions: plasma
[2] = Clearance in Lewis rat at 2 mg/kg, iv; assay type: ADME, organism-based; parameters: dose 2 mg/kg, route intravenous; conditions: in vivo
Ephrin type-A receptor 1 = Ephrin type-A receptor 1 (Homo sapiens, UniProt P21709); assay: Inhibition of EPHA1
Salmonella typhimurium = assay: Induction of mutagenicity in Salmonella Typhimurium by Ames test; assay type: toxicity, organism-based; conditions: salmonella enterica subsp. enterica serovar typhimurium
[3] = target: Proto-oncogene tyrosine-protein kinase receptor Ret (Homo sapiens, UniProt P07949); assay: Inhibition of RET
Blood = assay: Antiinflammatory activity in rat whole blood assessed as inhibition of LPS-induced TNFalpha release treated for 45 mins before LPS challenge measured after 6 hrs by ELISA; assay type: functional, tissue-based
[4] = AUC in Sprague-Dawley rat plasma at 2 mg/kg, iv after 8 hrs; assay type: ADME, organism-based; parameters: time < 8 hr, dose 2 mg/kg, route intravenous
[5] = target: T1, Inhibitor of nuclear factor kappa-B kinase subunit beta (Homo sapiens, UniProt O14920); assay: Inhibition of human IKK2-mediated GST-IkappaBalpha protein fusion phosphorylation
T1 sequence (O14920 whole entry): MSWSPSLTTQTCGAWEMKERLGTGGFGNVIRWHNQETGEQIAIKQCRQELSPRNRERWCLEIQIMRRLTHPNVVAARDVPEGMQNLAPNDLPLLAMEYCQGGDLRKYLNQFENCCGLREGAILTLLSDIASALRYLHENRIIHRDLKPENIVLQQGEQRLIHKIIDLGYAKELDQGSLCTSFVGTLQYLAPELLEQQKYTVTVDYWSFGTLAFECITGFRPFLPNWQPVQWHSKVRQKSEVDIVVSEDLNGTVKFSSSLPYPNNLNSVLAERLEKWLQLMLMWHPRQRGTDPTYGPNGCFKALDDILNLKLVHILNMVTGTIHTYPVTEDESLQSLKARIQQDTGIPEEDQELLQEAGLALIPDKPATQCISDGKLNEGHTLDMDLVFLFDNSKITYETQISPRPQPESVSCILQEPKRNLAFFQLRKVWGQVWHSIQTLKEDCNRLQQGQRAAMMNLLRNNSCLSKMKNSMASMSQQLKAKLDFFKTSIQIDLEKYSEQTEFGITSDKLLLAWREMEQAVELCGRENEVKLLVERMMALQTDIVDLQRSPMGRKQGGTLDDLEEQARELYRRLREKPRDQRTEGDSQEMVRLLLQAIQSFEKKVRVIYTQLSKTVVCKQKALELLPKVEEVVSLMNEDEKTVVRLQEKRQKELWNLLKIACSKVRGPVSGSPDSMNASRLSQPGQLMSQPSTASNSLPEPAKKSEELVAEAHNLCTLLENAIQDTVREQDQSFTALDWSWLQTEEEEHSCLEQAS

Cytochrome P450 2C19 = Cytochrome P450 2C19 (Homo sapiens, UniProt P33261); assay: Inhibition of CYP2C19; assay type: ADME
[6] = target: Vascular endothelial growth factor receptor 3 (Homo sapiens, UniProt P35916); assay: Inhibition of FLT4 at 10 uM
Vascular endothelial growth factor receptor 3, sequence (P35916 whole entry): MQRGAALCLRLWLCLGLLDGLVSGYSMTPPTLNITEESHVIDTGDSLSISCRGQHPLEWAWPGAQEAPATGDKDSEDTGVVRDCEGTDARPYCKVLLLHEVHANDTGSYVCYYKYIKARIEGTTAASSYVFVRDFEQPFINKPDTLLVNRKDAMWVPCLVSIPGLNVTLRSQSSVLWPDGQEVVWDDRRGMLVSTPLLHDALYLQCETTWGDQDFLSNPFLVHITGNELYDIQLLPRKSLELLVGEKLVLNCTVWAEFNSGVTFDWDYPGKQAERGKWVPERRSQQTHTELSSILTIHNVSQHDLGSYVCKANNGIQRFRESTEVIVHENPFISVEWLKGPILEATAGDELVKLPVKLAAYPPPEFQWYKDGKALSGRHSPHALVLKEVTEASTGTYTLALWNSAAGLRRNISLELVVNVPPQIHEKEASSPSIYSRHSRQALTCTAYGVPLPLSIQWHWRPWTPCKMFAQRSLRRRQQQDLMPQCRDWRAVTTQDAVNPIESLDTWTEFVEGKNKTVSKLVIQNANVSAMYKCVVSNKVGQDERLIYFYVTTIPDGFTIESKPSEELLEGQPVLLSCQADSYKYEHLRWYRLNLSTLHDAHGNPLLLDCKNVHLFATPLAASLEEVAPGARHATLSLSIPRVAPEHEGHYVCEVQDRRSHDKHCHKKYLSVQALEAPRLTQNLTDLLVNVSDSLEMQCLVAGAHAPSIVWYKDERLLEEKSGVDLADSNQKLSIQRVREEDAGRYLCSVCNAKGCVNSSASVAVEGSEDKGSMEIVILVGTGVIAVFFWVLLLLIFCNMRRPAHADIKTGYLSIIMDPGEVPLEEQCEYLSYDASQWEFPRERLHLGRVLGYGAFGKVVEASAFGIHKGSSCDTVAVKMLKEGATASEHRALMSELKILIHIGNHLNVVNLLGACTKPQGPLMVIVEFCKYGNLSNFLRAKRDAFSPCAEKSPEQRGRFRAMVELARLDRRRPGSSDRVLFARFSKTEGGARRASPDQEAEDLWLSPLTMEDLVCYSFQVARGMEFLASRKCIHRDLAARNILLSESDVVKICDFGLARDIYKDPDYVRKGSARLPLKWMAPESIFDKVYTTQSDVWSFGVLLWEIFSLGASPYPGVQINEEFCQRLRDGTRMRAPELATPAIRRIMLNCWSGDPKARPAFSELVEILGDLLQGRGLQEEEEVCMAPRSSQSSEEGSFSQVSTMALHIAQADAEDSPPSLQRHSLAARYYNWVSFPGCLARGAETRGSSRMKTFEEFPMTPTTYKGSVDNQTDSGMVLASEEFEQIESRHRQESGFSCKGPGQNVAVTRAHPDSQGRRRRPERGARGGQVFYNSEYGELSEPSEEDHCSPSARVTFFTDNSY

Proto-oncogene tyrosine-protein kinase receptor Ret, sequence (P07949 whole entry): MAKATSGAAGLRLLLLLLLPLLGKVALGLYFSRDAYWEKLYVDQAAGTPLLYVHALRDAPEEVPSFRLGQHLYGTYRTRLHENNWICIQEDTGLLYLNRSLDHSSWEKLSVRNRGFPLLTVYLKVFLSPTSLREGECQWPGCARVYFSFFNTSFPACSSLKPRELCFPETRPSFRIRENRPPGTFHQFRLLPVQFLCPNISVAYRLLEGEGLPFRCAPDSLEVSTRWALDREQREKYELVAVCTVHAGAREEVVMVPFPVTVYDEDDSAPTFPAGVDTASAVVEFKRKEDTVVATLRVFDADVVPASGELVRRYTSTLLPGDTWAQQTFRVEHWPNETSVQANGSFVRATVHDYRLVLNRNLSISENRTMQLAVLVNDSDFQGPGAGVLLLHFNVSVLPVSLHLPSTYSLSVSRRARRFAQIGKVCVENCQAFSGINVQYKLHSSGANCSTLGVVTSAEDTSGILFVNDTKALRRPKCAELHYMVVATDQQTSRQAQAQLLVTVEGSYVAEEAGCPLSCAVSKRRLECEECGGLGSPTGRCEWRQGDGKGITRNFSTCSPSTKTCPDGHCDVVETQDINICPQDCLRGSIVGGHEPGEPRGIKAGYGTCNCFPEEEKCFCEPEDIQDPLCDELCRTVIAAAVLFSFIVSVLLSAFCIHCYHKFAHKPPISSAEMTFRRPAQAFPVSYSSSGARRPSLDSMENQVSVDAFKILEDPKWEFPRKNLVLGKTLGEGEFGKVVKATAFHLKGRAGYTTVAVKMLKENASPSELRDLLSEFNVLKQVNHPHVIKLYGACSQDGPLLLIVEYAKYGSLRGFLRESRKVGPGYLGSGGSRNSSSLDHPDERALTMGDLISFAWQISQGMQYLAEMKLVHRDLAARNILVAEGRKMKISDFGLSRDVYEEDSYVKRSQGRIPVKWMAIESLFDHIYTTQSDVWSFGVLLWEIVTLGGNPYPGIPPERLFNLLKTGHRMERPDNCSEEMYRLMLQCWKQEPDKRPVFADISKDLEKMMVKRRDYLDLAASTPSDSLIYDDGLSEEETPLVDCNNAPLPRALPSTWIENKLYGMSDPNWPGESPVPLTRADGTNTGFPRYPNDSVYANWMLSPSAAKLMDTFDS
Cytochrome P450 2C19, sequence (P33261 whole entry): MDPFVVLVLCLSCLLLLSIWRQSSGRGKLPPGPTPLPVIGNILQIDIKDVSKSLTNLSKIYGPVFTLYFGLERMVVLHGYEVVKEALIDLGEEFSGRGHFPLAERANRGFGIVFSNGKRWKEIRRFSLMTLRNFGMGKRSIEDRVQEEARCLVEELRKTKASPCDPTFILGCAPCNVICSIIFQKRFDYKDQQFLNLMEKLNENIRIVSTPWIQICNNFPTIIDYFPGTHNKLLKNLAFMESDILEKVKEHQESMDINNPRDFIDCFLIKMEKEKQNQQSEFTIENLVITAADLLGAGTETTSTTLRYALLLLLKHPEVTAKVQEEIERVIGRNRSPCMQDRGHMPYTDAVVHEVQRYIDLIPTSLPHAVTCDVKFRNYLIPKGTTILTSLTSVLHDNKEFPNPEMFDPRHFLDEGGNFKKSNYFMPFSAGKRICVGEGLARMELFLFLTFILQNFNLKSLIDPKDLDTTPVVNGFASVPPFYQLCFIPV
Cytochrome P450 2D6, sequence (P10635 whole entry): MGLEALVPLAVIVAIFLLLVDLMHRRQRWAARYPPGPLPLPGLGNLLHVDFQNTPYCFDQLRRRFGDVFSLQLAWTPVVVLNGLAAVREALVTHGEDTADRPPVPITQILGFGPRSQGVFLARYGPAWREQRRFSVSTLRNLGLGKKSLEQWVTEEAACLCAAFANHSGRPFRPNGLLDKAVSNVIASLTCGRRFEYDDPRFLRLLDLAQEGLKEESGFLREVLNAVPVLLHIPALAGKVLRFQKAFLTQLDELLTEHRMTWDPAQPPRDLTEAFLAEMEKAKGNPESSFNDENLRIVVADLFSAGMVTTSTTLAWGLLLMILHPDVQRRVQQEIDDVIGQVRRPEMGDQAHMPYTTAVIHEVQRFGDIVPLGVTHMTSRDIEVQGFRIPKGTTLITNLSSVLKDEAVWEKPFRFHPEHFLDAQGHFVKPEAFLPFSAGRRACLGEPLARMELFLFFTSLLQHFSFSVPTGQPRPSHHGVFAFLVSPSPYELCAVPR
Ephrin type-A receptor 1, sequence (P21709 whole entry): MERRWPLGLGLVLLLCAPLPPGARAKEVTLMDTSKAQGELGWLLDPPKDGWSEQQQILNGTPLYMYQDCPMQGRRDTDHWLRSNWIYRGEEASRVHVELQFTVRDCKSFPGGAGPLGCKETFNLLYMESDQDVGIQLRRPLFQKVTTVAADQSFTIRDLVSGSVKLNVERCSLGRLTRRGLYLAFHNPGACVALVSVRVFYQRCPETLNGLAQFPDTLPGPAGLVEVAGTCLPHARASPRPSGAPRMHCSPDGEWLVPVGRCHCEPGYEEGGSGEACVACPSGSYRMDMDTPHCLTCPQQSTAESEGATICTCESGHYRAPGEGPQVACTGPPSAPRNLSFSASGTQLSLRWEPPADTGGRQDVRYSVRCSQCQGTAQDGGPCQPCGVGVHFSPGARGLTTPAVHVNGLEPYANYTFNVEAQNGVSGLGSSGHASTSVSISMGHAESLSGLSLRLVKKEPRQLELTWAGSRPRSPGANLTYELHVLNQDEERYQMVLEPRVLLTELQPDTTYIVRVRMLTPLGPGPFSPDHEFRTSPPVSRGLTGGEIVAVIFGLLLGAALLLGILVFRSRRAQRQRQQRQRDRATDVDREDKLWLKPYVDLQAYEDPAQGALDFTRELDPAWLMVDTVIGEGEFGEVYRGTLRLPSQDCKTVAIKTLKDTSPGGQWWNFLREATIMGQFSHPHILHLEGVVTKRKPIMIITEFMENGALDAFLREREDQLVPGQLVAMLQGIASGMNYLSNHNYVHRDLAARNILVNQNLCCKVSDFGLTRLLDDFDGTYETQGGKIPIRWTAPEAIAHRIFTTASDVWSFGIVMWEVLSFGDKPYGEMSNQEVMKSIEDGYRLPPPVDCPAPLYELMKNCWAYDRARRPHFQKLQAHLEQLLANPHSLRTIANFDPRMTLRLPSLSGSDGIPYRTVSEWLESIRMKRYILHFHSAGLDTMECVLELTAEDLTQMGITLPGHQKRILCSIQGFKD

IC50 (Cytochrome P450 2D6): > 40000 nM | AUC [1]: 89 µM·h | clearance [2]: 4.5 mL/min/kg | IC50 (Ephrin type-A receptor 1): 686 nM | IC50 [3]: 614 nM | IC50 (Blood): 1700 nM | AUC at 8 h [4]: 13 µM·h | IC50 [5]: 9 nM | IC50 (Cytochrome P450 2C19): > 40000 nM | inhibition [6]: > 75%
Compound: CNc1nc2[nH]c(-c3cccc(CNC(=O)COC)n3)cc2c2c1ncn2C
Activity (Salmonella typhimurium): Non-toxic
